Assay results reported in patent US6075132A, “Ursodeoxycholic acid derivatives and methods for producing them” (Bio Research Corporation of Yokohama, priority 1998, dated 2000).
≈ marks a conversion by molar mass, not a printed value. Like-named read-outs stand apart in the source and are kept apart here.

Test: Solubility in water (membrane-filtered supernatant after 18 h stirring; phenol-sulfuric acid method and HPLC)
Type: physicochemical
Conditions: for solubility in water relative to that of ursodeoxycholic acid: 1080 min
Experimental: 20 mg of the ursodeoxycholic acid derivative prepared above and shown in Table 1 below was sampled, to which was added 0.2 ml of water and stirred for 18 hours. The resulting supernatant was taken out through filtration with a membrane filter (0.45μm), and analyzed according to the phenol-sulfuric acid method and through HPLC. The condition for HPLC was as follows:
Column: YMC's YMC-Pack ODS-AQ-303 (4.6×250 mm)
Detector: Photo-diode array detector (202 nm)
Amount Charged into Column: 20 μl

SMILES	solubility at 18 h (water, stirred for 18 hours, read-out: Solubility in Water) [µg/mL]	solubility in water relative to that of ursodeoxycholic acid	solubility at 18 h (water) [µg/mL]	Solubility in Water (water, 18 h) [µg/mL]
C[C@H](CCC(=O)O)[C@H]1CC[C@H]2[C@@H]3[C@@H](O)C[C@@H]4C[C@H](O)CC[C@]4(C)[C@H]3CC[C@]12C [Ursodeoxycholic acid, ursodeoxycholic acid]	38 (≈ 96.8 µM)	–	–	–
C[C@H](CCC(=O)OCCOC1O[C@H](CO)[C@@H](O)[C@H](O)[C@H]1O)[C@H]1CC[C@H]2[C@@H]3[C@@H](O)C[C@@H]4C[C@H](O)CC[C@]4(C)[C@H]3CC[C@]12C (stereo partly drawn) [24-GLG-ursodeoxycholic acid, glycosyloxyethyl-24-ursodeoxycholic acid]	–	about 13 times	511 (≈ 853 µM)	–
C[C@H](CCC(=O)O)[C@H]1CC[C@H]2[C@@H]3[C@@H](OC(=O)COC4O[C@H](CO)[C@@H](O)[C@H](O)[C@H]4O)C[C@@H]4C[C@H](OC(=O)COC5O[C@H](CO)[C@@H](O)[C@H](O)[C@H]5O)CC[C@]4(C)[C@H]3CC[C@]12C (stereo partly drawn) [3,7-GLG-ursodeoxycholic acid, diglycosyloxyacetyl-3,7-ursodeoxycholic acid]	–	about 2500 times	95000 (≈ 114000 µM)	95000 (≈ 114000 µM)
